System: human bladder stroma fibroblasts
Assay: Cell work: fibroblast viability (prestoblue) after mitomycin C treatment
Type: cell-based
Settings: 3 days of drug treatment
Protocol: FIGS. 13(A) and (B) are graphs showing (A) relative cell count vs MMC concentrations (μg/mL), and (B) dose-response curve.
In each well of a 96 well cell culture plate, 3000 human bladder stroma fibroblasts cells are seeded. After one day of seeding, different concentrations of mitomycin C dissolved in cell media (200 μL) were added to the well. After 3 days of drug treatment, the drug media was removed and the well added with 70 μL of a cell viability reagent, prestoblue, in the ratio of 9:1 (cell media: prestoblue).

## CO[C@@]12[C@H](COC(N)=O)C3=C(C(=O)C(C)=C(N)C3=O)N1C[C@@H]1N[C@@H]12 [MMC, mitomycin C]
  GI50: about 0.115 μg/mL
  minimum concentration of MMC required to cause death of / inhibit proliferation of fibroblasts: 0.01 µg/mL
